Reference: PubChem BioAssay (NCI)
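The compound was tested at five concentrations on cells cultured in 96-well plates, with a 48-hour exposure period. GI50: concentration for 50% inhibition of growth. At the TGI there is no net growth.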

Columns and labels:
Assay in all cases: NCI-60 cell line screen, 48 h
[1] = test system: CAKI-1 renal
[2] = test system: OVCAR-3 ovarian
[3] = test system: BT-549 breast
[4] = test system: COLO 205 colon
[5] = test system: 786-0 renal
[6] = test system: UACC-62 melanoma
[7] = test system: UACC-257 melanoma
[8] = test system: SNB-75 CNS
[9] = test system: IGROV1 ovarian
[10] = test system: MDA-MB-231 breast
[11] = test system: SK-MEL-2 melanoma
[12] = test system: TK-10 renal
[13] = test system: OVCAR-8 ovarian
[14] = test system: LOX IMVI melanoma
[15] = test system: NCI/ADR-RES ovarian
[16] = test system: M14 melanoma
[17] = test system: SK-OV-3 ovarian
[18] = test system: PC-3 prostate
[19] = test system: NCI-H460 lung
[20] = test system: U251 CNS
[21] = test system: HT29 colon
[22] = test system: MCF7 breast
[23] = test system: HCC-2998 colon
[24] = test system: HOP-62 NSCLC
[25] = test system: SF-295 CNS
[26] = test system: HCT-116 colon
[27] = test system: SN12C renal
[28] = test system: SW-620 colon
[29] = test system: EKVX NSCLC
[30] = test system: SK-MEL-5 melanoma
[31] = test system: KM12 colon
[32] = test system: K-562 leukemia
[33] = test system: T-47D breast
[34] = test system: A498 renal
[35] = test system: HS 578T breast
[36] = test system: SF-268 CNS
[37] = test system: RXF 393 renal
[38] = test system: OVCAR-4 ovarian
[39] = test system: A549 NSCLC
[40] = test system: RPMI-8226 leukemia
[41] = test system: MALME-3M melanoma
[42] = test system: CCRF-CEM leukemia
[43] = test system: MDA-MB-435
[44] = test system: OVCAR-5 ovarian
[45] = test system: NCI-H522 lung
[46] = test system: HOP-92 NSCLC
[47] = test system: NCI-H226 lung
[48] = test system: UO-31 renal
[49] = test system: DU-145 prostate
[50] = test system: HCT-15 colon
[51] = test system: ACHN renal

Structure (SMILES): COc1ncc2cc1NS(=O)(=O)c1cccc(c1)C(=O)NCC1=CC=C(S1)c1ncnc3c1SC2=C3C
- GI50 [1]: 79.5 nM
- TGI [1]: 10300 nM
- GI50 [2]: 115 nM
- TGI [2]: 431 nM
- GI50 [3]: 85.5 nM
- TGI [3]: 505 nM
- GI50 [4]: 204 nM
- TGI [4]: 555 nM
- GI50 [5]: 310 nM
- TGI [5]: 2740 nM
- GI50 [6]: 248 nM
- TGI [6]: 1240 nM
- GI50 [7]: 371 nM
- TGI [7]: 2990 nM
- GI50 [8]: 17.6 nM
- TGI [8]: 2260 nM
- GI50 [9]: 71.5 nM
- TGI [9]: 1600 nM
- GI50 [10]: 139 nM
- TGI [10]: 12800 nM
- GI50 [11]: 225 nM
- TGI [11]: 1150 nM
- GI50 [12]: 510 nM
- TGI [12]: 10400 nM
- GI50 [13]: 580 nM
- TGI [13]: 15500 nM
- GI50 [14]: 90.2 nM
- TGI [14]: 499 nM
- GI50 [15]: 542 nM
- TGI [15]: 9630 nM
- GI50 [16]: 99.2 nM
- TGI [16]: 1890 nM
- GI50 [17]: 378 nM
- TGI [17]: 4070 nM
- GI50 [18]: 79.7 nM
- TGI [18]: 2770 nM
- GI50 [19]: 370 nM
- TGI [19]: 2550 nM
- GI50 [20]: 170 nM
- TGI [20]: 2030 nM
- GI50 [21]: 201 nM
- TGI [21]: 1740 nM
- GI50 [22]: 104 nM
- TGI [22]: 1620 nM
- GI50 [23]: 203 nM
- TGI [23]: 574 nM
- GI50 [24]: 238 nM
- TGI [24]: 4100 nM
- GI50 [25]: 97.2 nM
- TGI [25]: 2610 nM
- GI50 [26]: 277 nM
- TGI [26]: 2850 nM
- GI50 [27]: 395 nM
- TGI [27]: 18300 nM
- GI50 [28]: 490 nM
- TGI [28]: 3310 nM
- GI50 [29]: 234 nM
- TGI [29]: 2540 nM
- GI50 [30]: 36.9 nM
- TGI [30]: 151 nM
- GI50 [31]: 269 nM
- TGI [31]: 1340 nM
- GI50 [32]: 596 nM
- TGI [32]: > 100000 nM
- GI50 [33]: 94.6 nM
- TGI [33]: 4040 nM
- GI50 [34]: 188 nM
- TGI [34]: 548 nM
- GI50 [35]: 24.7 nM
- TGI [35]: 355 nM
- GI50 [36]: 370 nM
- TGI [36]: 11800 nM
- GI50 [37]: 72.1 nM
- TGI [37]: 695 nM
- GI50 [38]: 1220 nM
- TGI [38]: 10500 nM
- GI50 [39]: 158 nM
- TGI [39]: 805 nM
- GI50 [40]: 202 nM
- TGI [40]: 588 nM
- GI50 [41]: 302 nM
- TGI [41]: 3090 nM
- GI50 [42]: 153 nM
- TGI [42]: 1160 nM
- GI50 [43]: 434 nM
- TGI [43]: 3430 nM
- GI50 [44]: 169 nM
- TGI [44]: 4020 nM
- GI50 [45]: 467 nM
- TGI [45]: 2610 nM
- GI50 [46]: 52.6 nM
- TGI [46]: 667 nM
- GI50 [47]: 470 nM
- TGI [47]: 2600 nM
- GI50 [48]: 73.3 nM
- TGI [48]: 1700 nM
- GI50 [49]: 420 nM
- TGI [49]: 3400 nM
- GI50 [50]: 254 nM
- TGI [50]: 1360 nM
- GI50 [51]: 592 nM
- TGI [51]: 8330 nM
